One assay has as its target recombinant HuBraf V600E (Homo sapiens, UniProt P15056, V600E). Kind of assay: B-raf Homogenous Time Resolved Fluorescent (HTRF) kinase assay. Type of assay: biochemical. Conditions: human mutant B-raf V600E, substrate MEK1, 10 uM ATP, read-out: HTRF Enzyme assay Data IC50. How it is done: B-raf-Homogenous Time Resolved Fluorescent (HTRF) Kinase Assay
The final concentration of the kinase reaction buffer is 50 mM Tris-HCL pH 7.5, 10 mM MgCl2, 0.5% glucose, 0.5 mM DTT, 0.01% BSA. […] The detection reaction proceeds for one hour and is read on a RubyStar (BMG Labtech) counter. IC50s for the test compounds are generated using Excel-XLfit software.

Another assay has as its target T1, V600E mutant B-raf (Homo sapiens, UniProt P15056, V600E).
T1 construct: A375 cells, a human melanoma cell line having the V600E mutant B-raf is used in this assay; endogenous in cells; host or cells: A375 human melanoma cells
Kind of assay: B-raf cell-based assay (ratio of phospho-ERK1/2 to total ERK1/2 in A375 cells). Conditions: A375 human melanoma cells, P-ERK/total ERK. How it is done: A cell-based assay was optimized to assay the ability of compounds to inhibit B-raf activity in a whole cell context. […] The cell-based assay quantifies the ratio of phospho-ERK1/2 to total ERK1/2 and can thereby assay the cellular inhibition of B-raf kinase activity. A375 cells are plated into 96 well plates and grown to confluence. The cells are then changed into starve media (DMEM/0.1% BSA) for 60 minutes. Compounds in DMSO dose curves are then diluted in starve media and added to cells. […] After a 60 minute incubation the cells are fixed for 20 minutes at RT in 4% formaldehyde with 0.1% Triton X-100, protease and phosphatase inhibitors in PBS. The cells are washed four times in PBS then blocked for 60 minutes using a one to one mix of Odyssey blocking buffer (Li-Cor Biosciences, Inc) and PBS. Primary antibodies (rabbit anti-phospho p42/p44 MAPK (P-ERK1/2) from Cell Signaling Technology and mouse anti-ERK2 from Santa Cruz Biotechnology) are diluted in blocking buffer, added to the cells and incubated overnight at 4° C. The cells are then washed four times in PBS/0.1% Tween-20. Secondary antibodies (anti-mouse IRDye 800CW from Rockland, Inc and anti-rabbit AlexaFlour680 from Molecular Probes) are diluted in blocking buffer/0.5% Tween and incubated on cells for 60 minutes. After 4 washes in PBS/0.1% Tween-20 the microplate is scanned on an Odyssey Infrared Imager (Li-Cor Bioscience) which can read the signal given by the two secondary antibodies on their respective channels. The ratio of P-ERK/total ERK is determined and IC50s generated using Excel-XLfit software.

Each structure is given as a SMILES string. Where two headings read alike, the source gives them in different places.

Here are results for 15 compounds from patent publication US8557830B2, “RAF kinase modulators and methods of use” (Amgen Inc., priority 2007, dated 2013).

Chain of recombinant HuBraf V600E (P15056 whole entry V600E): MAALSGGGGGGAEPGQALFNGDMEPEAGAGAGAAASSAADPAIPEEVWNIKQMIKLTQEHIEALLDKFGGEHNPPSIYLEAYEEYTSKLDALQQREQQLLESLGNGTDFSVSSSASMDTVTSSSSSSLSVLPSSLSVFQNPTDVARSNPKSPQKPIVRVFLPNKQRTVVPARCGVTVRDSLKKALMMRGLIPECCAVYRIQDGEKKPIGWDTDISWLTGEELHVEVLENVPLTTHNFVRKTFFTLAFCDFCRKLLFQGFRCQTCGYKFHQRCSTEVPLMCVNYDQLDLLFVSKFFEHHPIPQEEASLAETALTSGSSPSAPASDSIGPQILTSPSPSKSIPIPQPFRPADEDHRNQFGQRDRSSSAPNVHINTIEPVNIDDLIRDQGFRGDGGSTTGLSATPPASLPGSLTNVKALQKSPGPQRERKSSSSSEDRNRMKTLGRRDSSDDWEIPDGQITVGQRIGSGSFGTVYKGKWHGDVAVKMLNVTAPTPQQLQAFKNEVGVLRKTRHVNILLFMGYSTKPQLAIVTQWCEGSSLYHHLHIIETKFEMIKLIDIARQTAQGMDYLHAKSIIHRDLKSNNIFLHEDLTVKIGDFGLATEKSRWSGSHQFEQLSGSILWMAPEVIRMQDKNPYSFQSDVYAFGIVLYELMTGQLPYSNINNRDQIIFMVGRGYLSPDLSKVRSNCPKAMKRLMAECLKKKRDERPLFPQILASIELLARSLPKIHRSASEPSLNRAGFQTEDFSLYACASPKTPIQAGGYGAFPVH
T1 sequence (P15056 whole entry V600E): as above

With `Cc1ccc2c(Nc3ccc(C#N)cc3)nccc2c1Nc1ncccc1-c1ncnc2[nH]ccc12` [Example 40, 4-((6-methyl-5-((3-(7H-pyrrolo[2,3-d]pyrimidin-4-yl)-2-pyridinyl)amino)-1-isoquinolinyl)amino)benzonitrile], the results for the concentration for half-maximal inhibition (IC50) at recombinant HuBraf V600E (Table I) and on V600E mutant B-raf (Table I) were 3 nM and 23 nM, respectively.

With `Cc1ccc2c(Nc3ccc4c(c3)OC(F)(F)O4)nccc2c1Nc1ncccc1-c1ncnc2[nH]ccc12` [Example 44, N-1-(2,2-difluoro-1,3-benzodioxol-5-yl)-6-methyl-N-5-(3-(7H-pyrrolo[2,3-d]pyrimidin-4-yl)-2-pyridinyl)-1,5-isoquinolinediamine], the concentration for half-maximal inhibition (IC50) at recombinant HuBraf V600E (Table I) was determined as 13 nM; at V600E mutant B-raf (Table I) it was 25 nM.

For the compound `C#Cc1cccc(Nc2ncnc3c(Nc4ncccc4-c4ncnc5[nH]cnc45)c(C)ccc23)c1` [Example 75, N-4-(3-ethynylphenyl)-7-methyl-N-8-(3-(9H-purin-6-yl)-2-pyridinyl)-4,8-quinazolinediamine], the IC50 on recombinant HuBraf V600E (Table II) came out at 3 nM; at V600E mutant B-raf (Table II), 28 nM.

Consider `Cc1ccc2c(Nc3ccc(C#N)cc3)nccc2c1Nc1ncccc1-c1ncnc2cc[nH]c12` [Example 63, 4-((6-methyl-5-((3-(5H-pyrrolo[3,2-d]pyrimidin-4-yl)-2-pyridinyl)amino)-1-isoquinolinyl)amino)benzonitrile], for which the IC50 at recombinant HuBraf V600E (Table I) was found to be 171 nM; on V600E mutant B-raf (Table I) it was 1000 nM.

For the compound `Cc1ccc2c(Nc3ccc(Cl)cc3)nccc2c1Nc1ncccc1-c1ncnc2[nH]ncc12` [Example 67, N5-(3-(1H-pyrazolo[3,4-d]pyrimidin-4-yl)pyridin-2-yl)-N1-(4-chlorophenyl)-6-methylisoquinoline-1,5-diamine], the half-maximal inhibitory concentration (IC50) on recombinant HuBraf V600E (Table I) is 5 nM; at V600E mutant B-raf (Table I) it was 3 nM.

For the compound `Cc1ccc2c(Nc3cccc(C(F)(F)F)c3)nccc2c1Nc1ncccc1-c1ncnc2[nH]cnc12` [Example 58, 6-methyl-N-5-(3-(9H-purin-6-yl)-2-pyridinyl)-N-1-(3-(trifluoromethyl)phenyl)-1,5-isoquinolinediamine], the IC50 on recombinant HuBraf V600E (Table I) and on V600E mutant B-raf (Table I) was 6 nM throughout.

Take `Cc1ccc2c(Nc3ccc4snc(C)c4c3)nccc2c1Nc1ncccc1-c1ncnc2[nH]ccc12` [Example 48, 6-methyl-N-1-(3-methyl-1,2-benzisothiazol-5-yl)-N-5-(3-(7H-pyrrolo[2,3-d]pyrimidin-4-yl)-2-pyridinyl)-1,5-isoquinolinediamine]: the IC50 on recombinant HuBraf V600E (Table I) was found to be 11 nM; on V600E mutant B-raf (Table I), 15 nM.

In the case of `Cc1ccc2c(Nc3ccc(Cl)cc3)ncnc2c1Nc1ncccc1-c1ncnc2[nH]cnc12` [Example 77, N-4-(4-chlorophenyl)-7-methyl-N-8-(3-(9H-purin-6-yl)-2-pyridinyl)-4,8-quinazolinediamine], the results for the IC50 on recombinant HuBraf V600E (Table II) and at V600E mutant B-raf (Table II) were 5 nM and 12 nM, respectively.

Consider `COc1ccc(Nc2nccc3c(Nc4ncccc4-c4ncnc5[nH]ncc45)c(C)ccc23)cc1C(F)(F)F` [Example 66, N5-(3-(1H-pyrazolo[3,4-d]pyrimidin-4-yl)pyridin-2-yl)-N1-(4-methoxy-3-(trifluoromethyl)phenyl)-6-methylisoquinoline-1,5-diamine], for which the results for the IC50 on recombinant HuBraf V600E (Table I) and on V600E mutant B-raf (Table I) were 25 nM and 28 nM, respectively.

On to `Cc1ccc2c(Nc3ccc4c(C)cc(=O)[nH]c4c3)nccc2c1Nc1ncccc1-c1ncnc2[nH]ccc12` [Example 52, 4-methyl-7-((6-methyl-5-((3-(7H-pyrrolo[2,3-d]pyrimidin-4-yl)-2-pyridinyl)amino)-1-isoquinolinyl)amino)-2(1H)-quinolinone], for which the IC50 at recombinant HuBraf V600E (Table I) and at V600E mutant B-raf (Table I) was 7 nM each time.

Regarding `Cc1ccc(C(F)(F)F)cc1Nc1nccc2c(Nc3nc(Cl)ncc3-c3ncnc4[nH]ccc34)c(C)ccc12` [Example 55, N-5-(2-chloro-5-(7H-pyrrolo[2,3-d]pyrimidin-4-yl)-4-pyrimidinyl)-6-methyl-N-1-(2-methyl-5-(trifluoromethyl)phenyl)-1,5-isoquinolinediamine], the figures for the IC50 on recombinant HuBraf V600E (Table I) and on V600E mutant B-raf (Table I) were 15 nM and 86 nM, respectively.

As to `Cc1ccc2c(Nc3ccc4c(c3)OC(F)(F)O4)nccc2c1Nc1ncccc1-c1ncnc2[nH]cnc12` [Example 59, N-1-(2,2-difluoro-1,3-benzodioxol-5-yl)-6-methyl-N-5-(3-(9H-purin-6-yl)-2-pyridinyl)-1,5-isoquinolinediamine], the IC50 on recombinant HuBraf V600E (Table I) and on V600E mutant B-raf (Table I) was 6 nM each time.

As for `C#Cc1cccc(Nc2nccc3c(Nc4ncccc4-c4ncnc5[nH]ccc45)c(C)ccc23)c1` [Example 43, N-1-(3-ethynylphenyl)-6-methyl-N~5~-(3-(7H-pyrrolo[2,3-d]pyrimidin-4-yl)-2-pyridinyl)-1,5-isoquinolinediamine], the figures for the IC50 on recombinant HuBraf V600E (Table I) and on V600E mutant B-raf (Table I) were 3 nM and 10 nM, respectively.

As to `Cc1ccc2c(Nc3ccc(Cl)cc3)nccc2c1Nc1ncncc1-c1ncnc2[nH]cnc12` [Example 69, N-1-(4-chlorophenyl)-6-methyl-N-5-(5-(9H-purin-6-yl)-4-pyrimidinyl)-1,5-isoquinolinediamine], the IC50 is 2 nM on recombinant HuBraf V600E (Table II) and 4 nM on V600E mutant B-raf (Table II).

For the compound `Cc1ccc(OC(F)(F)F)cc1Nc1nccc2c(Nc3ncccc3-c3ncnc4[nH]ccc34)c(C)ccc12` [Example 41, 6-methyl-N-1-(2-methyl-5-((trifluoromethyl)oxy)phenyl)-N-5-(3-(7H-pyrrolo[2,3-d]pyrimidin-4-yl)-2-pyridinyl)-1,5-isoquinolinediamine], the half-maximal inhibitory concentration (IC50) at recombinant HuBraf V600E (Table I) amounted to 35 nM; at V600E mutant B-raf (Table I), 107 nM.
